According to patent publication US20080058210A1, “Method of isolating shikimic acid from a plant” (priority 2006, published 2008):

Tested on: Express spring wheat
Experiment: Field trial plots with glyphosate on Express spring wheat; shikimic acid in whole above ground plant by water extraction and HPLC
Assay type: in vivo
Description: Field trial plots with glyphosate on Express spring wheat were established at three treatment levels, untreated control, 4 oz formulated/acre, and 14 oz formulated/acre. Field site studies were conducted in eastern Washington, near Kennewick, Wash. There were buffer zones around each treat level and control plot. The whole above ground plant was harvested at time zero, 5, 10, 15, and 20 days after application. The samples were cooled immediately and frozen within one hour. The samples were received from the field and stored in the freezer at <−10 C. At the time of application plants were 8-10 inches tall, after 20 days the control plants were 20-24 inches and beginning to head out.
Plant tissue was placed in an open container and dried at ca. 70 C overnight (14 to 16 hrs). Each sample was ground to pass through a 20 mesh screen. The ground sample was placed in a glass jar. Sealed samples may be stored at ≦−10 C for several months (the longest time tested). Approximately 150 mg of dry ground sample weight was placed into a screw cap bottle, 30 mL of DI water was added, and the bottle was capped and placed on a shaker overnight (14 to 16 hrs) at a minimum of 50 rpm. Extracts were filtered through a Whatman GF/A filter. For quantification, an aliquot was filtered (0.45 μm disposable) into an HPLC auto-sampler vial.
HPLC analysis was performed on a Perkin-Elmer ISS 200. Instrument conditions were as follows: column 250×4.6 mm ALTEX Ultrasphere 5 μm ODS (or equivalent);mobile phase (isocratic) 50 mM KH2PO4 solution adjusted to pH 2.4; flow rate 2 mL/min, detector 214 nm. Calibration curves consisted of 1, 5, 10, 50, 100 and 200 μg/mL standards, r^2 values were ≧0.998. Retention time was ca. 2.0 min.

Which results are given for `O=C(O)CNCP(=O)(O)O` [glyphosate]?
shikimic acid level, factor above normal (higher treat rate 14 oz formulated/acre, day-5): 6; shikimic acid level, factor above normal (higher treat rate 14 oz formulated/acre, day-10): 10; shikimic acid level relative to normal (higher treat rate 14 oz formulated/acre, through the study period of 20 days): remains elevated; shikimic acid level relative to normal (low treat rate 4 oz formulated/acre, day 20): within normal levels; shikimic acid level, factor above normal (low treat rate 4 oz formulated/acre, day-5 sampling): 4; shikimic acid level, factor above normal (low treat rate 4 oz formulated/acre, day-10): 2; shikimic acid level relative to normal (low treat rate 4 oz formulated/acre, day-15): nearly within normal range
